The source of these data is US8541573B2, “Substituted sulfonamide compounds” (Gruenenthal GmbH, priority 2008, dated 2013).

Assay [1] concerns the target T1, B1R of rats (Rattus norvegicus, UniProt P97583).
T1 construct: expressed in transfected cells; host or cells: CHO K1 cells
T1 sequence (P97583 1-337): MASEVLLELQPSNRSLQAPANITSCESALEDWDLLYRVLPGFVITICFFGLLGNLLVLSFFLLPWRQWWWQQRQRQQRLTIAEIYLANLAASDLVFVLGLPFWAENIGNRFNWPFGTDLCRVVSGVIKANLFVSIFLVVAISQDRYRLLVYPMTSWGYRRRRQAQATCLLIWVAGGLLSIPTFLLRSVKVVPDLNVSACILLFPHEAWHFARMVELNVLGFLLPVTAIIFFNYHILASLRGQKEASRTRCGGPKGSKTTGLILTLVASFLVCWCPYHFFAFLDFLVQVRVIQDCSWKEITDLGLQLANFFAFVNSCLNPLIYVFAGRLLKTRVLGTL
In words: Functional investigation on the bradykinin 1 receptor (B1R), cell-based fluorescent calcium-mobilization assay (FLIPR/Novostar), rat. Particulars: 10 μM test substance; CHO K1 cells stably transfected with rat B1R gene; agonist Des-Arg9-bradykinin at EC80; % inhibition compared with maximum achievable inhibition; read-out: B1R antagonism, rat [10 μM] % inhibition. How it is done: (§1) The agonistic or antagonistic action of substances can be quantified on the bradykinin 1 receptor (B1R) of the human and rat species with ectopically expressing cell lines (CHO K1 cells) and with the aid of a Ca^2+-sensitive dyestuff (Fluo-4) in a fluorescent imaging plate reader (FLIPR). The figure in % activation is based on the Ca^2+ signal after addition of Lys-Des-Arg^9-bradykinin (0.5 nM) or Des-Arg^9-bradykinin (100 nM). Antagonists lead to a suppression of the Ca^2+ inflow after addition of the agonist. % inhibition compared with the maximum achievable inhibition is stated.
(§2) The agonistic or antagonistic action of substances can be determined on the bradykinin 1 receptor (B1R) of humans and rats by means of a cell-based flourescent calcium-mobilization assay. According to this assay agonist-induced increase of intracellular free Ca^2+ is quantified by means of a Ca^2+-sensitive dye (Fluo-4 type, Molecular Probes Europe BV, Leiden, Netherlands), in a Fluorescent Imaging Plate Reader (FLIPR, Molecular Devices, Sunnyvale, USA) and/or the Novostar (BMG Labtech GmbH, Offenburg, Germany).
(§3) Chinese hamster ovary cells (CHO K1 cells), which are stably transfected with the human B1R gene (hB1R cells) or with the B1R gene of rats (rB1R cells), are used. For functional investigations these cells are seeded into black 96-well plates with a clear bottom (BD Biosciences, Heidelberg, Germany or Greiner, Frickenhausen, Germany) in a density of 20,000-35,000 cells/well. The cells are incubated overnight in a humidified atmosphere at 37° C. and 5% CO2 in culture medium (hB1R cells: Nutrient Mixture Ham's F12, Gibco Invitrogen GmbH, Karlsruhe, Germany or DMEM, Sigma-Aldrich, Taufkirchen, Germany; rB1R cells: D-MEM/F12, Gibco Invitrogen GmbH, Karlsruhe, Germany) with 10 vol. % FBS (foetal bovine serum, Gibco Invitrogen GmbH, Karlsruhe, Germany).
(§4) On the following day the cells are loaded with the Ca^2+-sensitive dye Fluo-4-AM (Molecular Probes Europe BV, Leiden, Netherlands):
(§5) Method A: The medium of the cells is removed and cell plates are incubated with loading solution, which contains 2.13 μM Fluo-4-AM, 2.5 mM probenecid (Sigma-Aldrich, Taufkirchen, Germany), and 10 mM HEPES (Sigma-Aldrich, Taufkirchen, Germany) in HBSS buffer (Hank's buffered saline solution, Gibco Invitrogen GmbH, Karlsruhe, Germany) for 60 minutes at 37° C. After the plates are washed twice with HBSS buffer, HBSS buffer supplemented 0.1% BSA (bovine serum albumin; Sigma-Aldrich, Taufkirchen, Germany), 5.6 mM glucose and 0.05% gelatine (Merck KGaA, Darmstadt, Germany) is added. Cell plates are incubated for at least 20 minutes in the dark at room temperature before they are used for the Ca^2+ measurement in the FLIPR or Novostar.
(§6) Method B: The plates are washed with buffer A (15 mM HEPES, 80 mM NaCl, 5 mM KCl, 1.2 mM CaCl2, 0.7 mM MgSO4, 2 mg/ml glucose, 2.5 mM probenecid) and subsequently loaded with buffer A containing 2.4 μM Fluo-4-AM and 0.025% pluronic F127 (Sigma-Aldrich, Taufkirchen, Germany) for 60 minutes at 37° C. Cell plates are washed twice with buffer A. Then, buffer A supplemented with 0.05% BSA and 0.05% gelatine is added and cell plates are incubated in the dark at room temperature for at least 20 minutes before measurement in the FLIPR or Novostar is started.
(§7) The Ca^2+-dependent fluorescence is measured both before and after the addition of substances (λex=488 nm, λem=540 nm). For quantification of the effect the highest fluorescence intensity (FC, fluorescence counts) over time is given. The FLIPR protocol consists of two substance additions, done within the instrument while continuously monitoring the Ca^2+-dependent fluorescence at 540 nm. When the Novostar was used, one addition had to be done outside the instrument. Test substances (10 μM) are initially pipetted onto the cells and the intracellular Ca^2+ rise is compared with the control (hB1R: Lys-Des-Arg9-bradykinin>=50 nM; rB1R: Des-Arg9-bradykinin>=1 μM). […]

Assay [2] has as its target T2, human B1R (Homo sapiens, UniProt P46663).
T2 construct: expressed in transfected cells; host or cells: CHO K1 cells
T2 sequence (P46663 1-353): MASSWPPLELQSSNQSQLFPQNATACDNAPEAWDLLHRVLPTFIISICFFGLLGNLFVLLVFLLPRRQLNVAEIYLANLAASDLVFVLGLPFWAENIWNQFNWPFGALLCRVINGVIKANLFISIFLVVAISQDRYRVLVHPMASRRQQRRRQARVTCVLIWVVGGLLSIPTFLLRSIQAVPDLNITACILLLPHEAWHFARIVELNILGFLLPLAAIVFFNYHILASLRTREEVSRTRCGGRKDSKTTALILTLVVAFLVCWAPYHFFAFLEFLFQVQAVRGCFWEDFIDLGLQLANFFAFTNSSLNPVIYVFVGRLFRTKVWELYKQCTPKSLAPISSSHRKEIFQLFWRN
The assay can be described thus: Functional investigation on the bradykinin 1 receptor (B1R), cell-based fluorescent calcium-mobilization assay (FLIPR/Novostar), human. As to conditions: 10 μM test substance; CHO K1 cells stably transfected with human B1R gene; agonist Lys-Des-Arg9-bradykinin at EC80; % inhibition compared with maximum achievable inhibition; read-out: B1R antagonism, human [10 μM] % inhibition. The protocol: as §1, §2, §3, §4, §5, §6, §7

One may read the inhibition as the relative decrease from the control value, in per cent.

Structures are written as SMILES.

Take `CC(=O)NCC1(N2CCN(c3ccncc3)CC2)CCN(C(=O)CC2CCCCN2S(=O)(=O)c2cccc(C(F)(F)F)c2)CC1` (stereo not drawn) [Example 36, N-((4-(4-(pyridin-4-yl)piperazin-1-yl)-1-(2-(1-(3-(trifluoromethyl)phenyl-sulfonyl)piperidin-2-yl)acetyl)piperidin-4-yl)methyl)acetamide]: the inhibition at 10 µM turned out to be 101% in assay [1] and 99% in assay [2].
Taken in the same sequence, the figures for `Cc1cc(S(=O)(=O)N2CCCCC2CCC(=O)N2CCC(CNC(=O)c3ccccn3)(N3CCN(C)CC3)CC2)c(C)cc1Cl` (stereo not drawn) [Example 9, N-((1-(3-(1-(4-chloro-2,5-dimethylphenylsulfonyl)piperidin-2-yl)propanoyl)-4-(4-methylpiperazin-1-yl)piperidin-4-yl)methyl)picolinamide] were 11% and 99%.
With `CN1CCN(C2(CNC(=O)Cc3ccccc3)CCN(C(=O)CC3CCCCN3S(=O)(=O)c3cccc(C(F)(F)F)c3)CC2)CC1` (stereo not drawn) [Example 4, N-((4-(4-methylpiperazin-1-yl)-1-(2-(1-(3-(trifluoromethyl)phenylsulfonyl)piperidin-2-yl)acetyl)piperidin-4-yl)methyl)-2-phenylacetamide], the values for the inhibition at 10 µM in assay [1] and in assay [2] were 59% and 67%, respectively.
Consider `CN1CCN(C2(CNC(=O)c3ccccn3)CCN(C(=O)CC(NS(=O)(=O)c3ccc4ccccc4c3)c3ccccc3)CC2)CC1` (stereo not drawn) [Example 19, N-((4-(4-methylpiperazin-1-yl)-1-(3-(naphthalene-2-sulfonamido)-3-phenylpropanoyl)piperidin-4-yl)methyl)picolinamide], for which the inhibition at 10 µM is 83% in assay [1] and 102% in assay [2].
Taken in the same sequence, the figures for `Cc1cccc(Cl)c1S(=O)(=O)N(CCOCC(=O)N1CCC(CNC(=O)c2ccncc2)(N2CCN(C3CC3)CC2)CC1)C1CC1` [Example 43, N-((1-(2-(2-(2-Chloro-N-cyclopropyl-6-methylphenylsulfonamido)ethoxy)-acetyl)-4-(4-cyclopropylpiperazin-1-yl)piperidin-4-yl)methyl)-isonicotinamide] were 103% and 100%.
The like results for `CC(=O)NCC1(N2CCN(c3ccncc3)CC2)CCN(C(=O)COCC2CCc3ccccc3N2S(=O)(=O)c2ccc(Cl)c(Cl)c2)CC1` (stereo not drawn) [Example 17, N-((1-(2-((1-(3,4-dichlorophenylsulfonyl)-1,2,3,4-tetrahydroquinolin-2-yl)methoxy)acetyl)-4-(4-(pyridin-4-yl)piperazin-1-yl)piperidin-4-yl)methyl)acetamide] were, in that order, 101% and 104%.
Taken in the same sequence, the figures for `COc1cc(C)c(S(=O)(=O)N2CCCCC2COCC(=O)N2CCC(CNC(C)=O)(N3CCN(c4ccncc4)CC3)CC2)c(C)c1` (stereo not drawn) [Example 22, N-((1-(2-((1-(4-methoxy-2,6-dimethylphenylsulfonyl)piperidin-2-yl)methoxy)acetyl)-4-(4-(pyridin-4-yl)piperazin-1-yl)piperidin-4-yl)methyl)acetamide] were 101% and 103%.
Regarding `Cc1cccc(Cl)c1S(=O)(=O)N1c2ccccc2OCC1COCC(=O)N1CCC(CNC(=O)c2ccncc2)(N2CCN(C)CC2)CC1` (stereo not drawn) [Example 50, N-((1-(2-((4-(2-Chloro-6-methylphenylsulfonyl)-3,4-dihydro-2H-benzo[b][1,4]oxazin-3-yl)methoxy)acetyl)-4-(4-methylpiperazin-1-yl)piperidin-4-yl)methyl)isonicotinamide], the inhibition at 10 µM in assay [1] is 102%; in assay [2], 96%.
Turning to `COc1cc(C)c(S(=O)(=O)N2CCCCC2COCC(=O)N2CCC(CNC(=O)Cc3ccccc3)(N3CCN(C)CC3)CC2)c(C)c1` (stereo not drawn) [Example 3, N-((1-(2-((1-(4-methoxy-2,6-dimethylphenylsulfonyl)piperidin-2-yl)methoxy)acetyl)-4-(4-methylpiperazin-1-yl)piperidin-4-yl)methyl)-2-phenylacetamide], the inhibition at 10 µM was determined as 104% in assay [1] and 103% in assay [2].
Take `COc1cc(C)c(S(=O)(=O)N(C)CCOCC(=O)N2CCC(CNC(C)=O)(N3CCN(c4ccncc4)CC3)CC2)c(C)c1` [Example 41, N-((1-(2-(2-(4-methoxy-N,2,6-trimethylphenylsulfonamido)ethoxy)acetyl)-4-(4-(pyridin-4-yl)piperazin-1-yl)piperidin-4-yl)methyl)acetamide]: the inhibition at 10 µM was 102% in assay [1] and 100% in assay [2].
With `COc1cc(C)c(S(=O)(=O)N2CCCCC2COCC(=O)N2CCC(CNC(=O)c3ccccn3)(N3CCN(C)CC3)CC2)c(C)c1` (stereo not drawn) [Example 21, N-((1-(2-((1-(4-methoxy-2,6-dimethylphenylsulfonyl)piperidin-2-yl)methoxy)acetyl)-4-(4-methylpiperazin-1-yl)piperidin-4-yl)methyl)picolinamide], the inhibition at 10 µM in assay [1] came out at 101%; in assay [2], 103%.
Turning to `COc1cc(C)c(S(=O)(=O)N2CCCCC2CCOCC(=O)N2CCC(CNC(=O)c3ccncc3)(N3CCN(C)CC3)CC2)c(C)c1` (stereo not drawn) [Example 53, N-((1-(2-(2-(1-(4-Methoxy-2,6-dimethylphenylsulfonyl)piperidin-2-yl)ethoxy)acetyl)-4-(4-methylpiperazin-1-yl)piperidin-4-yl)methyl)isonicotinamide], the inhibition at 10 µM in assay [1] turned out to be 102%.
Regarding `CN1CCN(C2(CNC(=O)c3ccncc3)CCN(C(=O)CCCN(C)S(=O)(=O)c3cccc(C(F)(F)F)c3)CC2)CC1` [Example 54, N-((1-(4-(N-Methyl-3-(trifluoromethyl)phenylsulfonamido)butanoyl)-4-(4-methylpiperazin-1-yl)piperidin-4-yl)methyl)isonicotinamide], the inhibition at 10 µM in assay [1] amounted to 66%.
